The text below walks through data of patent US8273562B2, “Method for producing 4-hydroxy-L-isoleucine” (Ajinomoto Co., Inc., priority 2006, dated 2012).

Experiment [1] has as its target T1, L-Ile hydroxylase (Bacillus thuringiensis, UniProt E2GIN1).
T1 construct: made in house; host or cells: Bacillus thuringiensis 2-e-2 (natural producer; enzyme purified by chromatography, not recombinant)
As to the kind of experiment: Effects of addition of cofactors on 4-hydroxyisoleucine production with purified enzyme. Type of experiment: biochemical. The conditions noted are these: purified enzyme + 5 mM L-Ile + 5 mM cofactor; 100 mM HEPES pH 6. From the text: The effects of cofactors on the production of 4-hydroxyisoleucine by hydroxylation of Ile were examined by using the purified enzyme.

Experiment [2] has as its target T2, enzyme in 2-e-2 cell lysate (Bacillus thuringiensis, UniProt E2GIN1).
T2 construct: the collected and washed 2-e-2 cells were disrupted using a mortar; endogenous in cells; host or cells: Bacillus thuringiensis 2-e-2 cell lysate
In words: Effects of enzyme cofactors on 4-hydroxyisoleucine production with 2-e-2 cell lysate. Type of experiment: biochemical. The conditions noted are these: Lysate + 5 mM Ile + 5 mM cofactor; 50 mM HEPES pH 7. How it is done:
(§1) The cells were cultured in the AMKP medium until OD660 of 3.2 was achieved, then the collected and washed 2-e-2 cells were disrupted using a mortar, and suspended in a buffer (50 mM HEPES (pH 7.0), 10% of glycerol, Complete Mini (Roche)) until a suspension (lysate) is obtained having a protein concentration of about 10 mg/ml including centrifugation precipitates. The centrifugation precipitates were finally suspended in physiological saline of the same volume as the cell lysate. These were each mixed with an equal volume of a 2× dioxygenase reaction mixture (10 mM Ile, […], 10 mM 2-oxoglutaric acid, 10 mM ascorbic acid, 100 mM HEPES (pH 7.0)), and the reaction proceeded at 30° C. for 1 hour. Similarly, resting cells used for the preparation of the cell lysate were washed, and suspended in physiological saline at a concentration 10 times that in the culture broth, the suspension was mixed with an equal volume of the 2× dioxygenase reaction mixture, and the reaction proceeded.
By using a cell lysate of the 2-e-2 cells in the logarithmic growth phase, the effects of cofactors on the 4-hydroxyisoleucine production reaction by hydroxylation of Ile were examined. A 50 mM HEPES (pH 7) reaction mixture was used containing final concentrations of 5 mM Ile and 5 mM of one of various cofactors with a cell lysate of the 2-e-2 cells (lysate) in the logarithmic growth phase prepared by the method described in <5> above, and the amount of 4-hydroxyisoleucine produced was measured.

In experiment [3] the target is T2, enzyme in 2-e-2 cell lysate. As to the kind of experiment: Effect of inhibitors on 4-hydroxyisoleucine production in the 2-e-2 cell lysate. In kind it is biochemical. The conditions noted are these: 10 mM inhibitor, pH 6, 30° C., 1 hour. As to the method:
as §1
By using a cell lysate prepared from 2-e-2 cells at OD660 of 7 according to the method described in <5>, the effects of inhibitors on the 4-hydroxyisoleucine production were examined. […] The dioxygenase reaction mixture contained 5 mM Ile, 5 mM Fe^2+, 5 mM 2-oxoglutaric acid, 5 mM ascorbic acid, and 100 mM HEPES (pH 6), the reaction temperature was 30° C., and the reaction time was 1 hour. The amount of 4-hydroxyisoleucine which was produced when 10 mM of each inhibitor (EDTA, Cu^2+, Zn^2+) was added to the reaction system was measured. 4-Hydroxyisoleucine was analyzed by the method described in <2>. The isoleucine hydroxylation activity was inhibited by the inhibitors.

Experiment [4] addresses T1, L-Ile hydroxylase. As to the kind of experiment: Effects of inhibitors on 4-hydroxyisoleucine production by purified L-Ile hydroxylase. Type of experiment: biochemical. The conditions noted are these: 10 mM inhibitor; 4-hydroxyisoleucine production with no inhibitor = 100%; pH 6, 30° C., 1 hour. As to the method: Each fraction was reacted using an Ile hydroxylation activity reaction mixture (100 mM HEPES (pH 6.0), 5 mM L-Ile, 5 mM Fe^2+, 5 mM 2-oxoglutaric acid, 5 mM ascorbic acid at final concentrations) at 30° C. for 30 minutes. The enzyme was inactivated at 100° C., and then the amount of 4-hydroxyisoleucine was quantified by the aforementioned AMKP and HIL separation and measurement method. The 4-hydroxyisoleucine referred to in the subsequent analysis indicates a substance that is substantially composed of the isomer having the same retention time as that of the naturally occurring 4-hydroxyisoleucine. The enzyme activity that produces 1 nmol of HIL per minute was defined as 1 U.
By using L-Ile hydroxylase prepared as described in Example 2, the effect of inhibitors on the production of 4-hydroxyisoleucine were examined. The enzymatic reaction solution contained 5 mM Ile, 5 mM Fe^2+, 5 mM 2-oxoglutaric acid, 5 mM ascorbic acid, and 100 mM HEPES (pH 6), the reaction temperature was 30° C., and the reaction time was 1 hour. The amount of 4-hydroxyisoleucine produced when 10 mM of each inhibitor (EDTA, Cu^2+, Zn^2+) was added to the reaction system was measured. These values are relative to the 4-hydroxyisoleucine production observed with no inhibitor, which was set as 100%. The isoleucine hydroxylation activity was lost in the presence of the inhibitors.

The target in experiment [5] is T1, L-Ile hydroxylase. As to the kind of experiment: Substrate reaction characteristics of purified L-Ile hydroxylase. The conditions noted are these: 5 mM amino acid; purified enzyme; pH 6, 30° C., 1 hour; HPLC. Type of experiment: biochemical. How it is done: By using L-Ile hydroxylase prepared as described in Example 2, the reaction characteristics for various amino acids were evaluated. The enzyme solution and the reaction mixture were mixed, and then the reaction proceeded at 30° C. for 1 hour, and the production of new substances was evaluated by HPLC analysis. The enzymatic reaction solution contained 5 mM amino acid, 5 mM Fe^2+, 5 mM 2-oxoglutaric acid, 5 mM ascorbic acid, and 100 mM HEPES (pH 6). In addition to L-isoleucine, the amino acids D-isoleucine, L-leucine, L-valine, L-glutamic acid, and L-lysine were also individually evaluated. The produced 4-hydroxyisoleucine was analyzed as in Example 1. Like when using a cell lysate, production of a new substance could not be confirmed for amino acids other than L-isoleucine.

The next experiment concerns strain 2-e-2. In words: Effect of addition of cofactors on AMKP production in culture of strain 2-e-2. Type of experiment: cell-based, Bacillus thuringiensis. The conditions noted are these: culture supernatant; 30° C., 22 hours; control 1.34. As to the method: The possibility of molecular oxygen uptake by hydroxylation was considered as a possible mechanism for the production of AMKP. Accordingly, the production of AMKP was analyzed when NAD(P)H, or Fe^2+, 2-oxoglutaric acid and ascorbic acid, were added during the culture of the 2-e-2 strain. NAD(P)H is a cofactor of monooxygenases and Fe^2+, 2-oxoglutaric acid and ascorbic acid are cofactors of dioxygenases.
The culture medium used in the previous screening was used as a control, and the production of AMKP was compared among cultures containing the cofactors as shown in Table 3. The culture temperature was 30° C., and the culture time was 22 hours. The concentration of AMKP in the culture supernatants was measured.

The target in experiment [6] is T2, enzyme in 2-e-2 cell lysate. As to the kind of experiment: Substrate reaction characteristics of enzyme in 2-e-2 cell lysate. In kind it is biochemical. Conditions: 5 mM amino acid, pH 7, 30° C., 1 hour, TLC or amino acid analysis. How it is done: as §1
By using a cell lysate prepared from 2-e-2 cells at OD660 of 7 according to the method described in <5>, the reaction characteristics for various amino acids were evaluated. The cell lysate and a substrate solution were mixed, then the reaction proceeded at 30° C. for 1 hour, and the production of new substances was evaluated by TLC or amino acid analysis. The substrate reaction mixture contained 5 mM amino acid, 5 mM Fe^2+, 5 mM 2-oxoglutaric acid, 5 mM ascorbic acid, and 100 mM HEPES (pH 7). In addition to L-isoleucine, the amino acids L-leucine, L-valine, L-glutamic acid, and L-lysine were each individually evaluated. The 4-hydroxyisoleucine which was produced was analyzed by the method described in Example 1. Production of amino acids other than L-isoleucine was not observed.

Experiment [7] relates to dioxygenase activity in fenugreek extract. The conditions noted are these: cited from earlier work.
Experiment [8] can be described thus: Production of HIL from Ile with crude enzyme solution of E. coli expressing ido genes. In kind it is biochemical, Escherichia coli. The conditions noted are these: 28° C., 3 hours, control (pET21b) 11. How it is done: The plasmid expressing the ido gene from B. cereus ATCC 14579, B. thuringiensis AKU238, or B. weihenstephanensis KBAB4, which was constructed in Example 8, was introduced into E. coli Rosetta2 (DE3), and the transformants were cultivated with shaking in LB medium supplemented with 50 μg/ml ampicilin (preculture). By seeding the preculture broth in 50 ml LB medium at 1%, the main culture was carried out at 37° C. 2 hours after the start of the cultivation, IPTG was added to a final concentration of 1 mM, and the cultivation was carried out for an additional 3 hours. After completion of the cultivation, the cells were harvested, washed, suspended in 1 ml of 20 mM Tris-HCl (pH 7.6), and disrupted with a sonicator (INSONATOR 201M, KUBOTA). The lysate was centrifuged at 15000 rpm for 10 minutes, and the supernatant was used as a crude enzyme solution.
By using the crude enzyme solution prepared in (1), the conversion of Ile to HIL was measured. The reaction mixture is described below. The reaction mixture was reacted with shaking (300 rpm) at 28° C. for 3 hours, and then the amount of HIL produced was determined by HPLC.

T1 sequence (E2GIN1 2-240): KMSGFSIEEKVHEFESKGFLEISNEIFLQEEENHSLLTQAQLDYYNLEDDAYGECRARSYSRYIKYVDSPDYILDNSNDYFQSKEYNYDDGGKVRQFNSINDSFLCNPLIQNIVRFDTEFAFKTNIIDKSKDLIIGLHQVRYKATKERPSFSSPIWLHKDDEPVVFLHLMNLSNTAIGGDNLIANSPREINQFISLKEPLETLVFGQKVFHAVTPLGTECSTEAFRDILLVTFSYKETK
T2 sequence (E2GIN1 2-240): as above

Regarding `O=C1O[C@H]([C@@H](O)CO)C(O)=C1O` [Ascorbate, ascorbic acid], the “HIL” value on L-Ile hydroxylase [1] is 0.00 mM. Moreover, the “HIL production” value in [2] was 0.00 mM.

As to `[Cu+2]` [Cu^2+], the “isoleucine hydroxylation activity in presence of inhibitor” value in experiment [3] is given as “inhibited”. In addition, the “Relative activity (%)” value at L-Ile hydroxylase [4] is 0%.

`CC[C@@H](C)[C@@H](N)C(=O)O` [D-Isoleucine, D-isoleucine]: the “Product (reactivity for each amino acid)” value on L-Ile hydroxylase [5] is “None”.

Take `[Fe+2]` [Fe^2+]: in the experiment with strain 2-e-2, the “AMKP concentration” value came out at 2.53 mM. Also, the “HIL” value on L-Ile hydroxylase [1] stood at 0.00 mM. In addition, the “HIL production” value in experiment [2] is given as 0.00 mM.

With `N[C@@H](CCC(=O)O)C(=O)O` [L-Glutamic acid, L-glutamic acid], on L-Ile hydroxylase [5], the “Product (reactivity for each amino acid)” value is “None”. Besides, the “Product (reactivity for various amino acids)” value in [6] was “None”.

For `CC[C@H](C)[C@H](N)C(=O)O` [L-Isoleucine, L-isoleucine], the “isoleucine concentration that inhibits the activity of the enzyme” value in experiment [7] is given as not below 20 mM. Moreover, the “Product (reactivity for each amino acid)” value at L-Ile hydroxylase [5] was “Produced (HIL)”. Moreover, the “Product (reactivity for various amino acids)” value in experiment [6] is listed as “Produced (HIL)”.

`CC(C)C[C@H](N)C(=O)O` [L-Leucine, L-leucine]: the “Product (reactivity for each amino acid)” value on L-Ile hydroxylase [5] is “None”. Further, the “Product (reactivity for various amino acids)” value in experiment [6] is recorded as “None”.

`NCCCC[C@H](N)C(=O)O` [L-Lysine, L-lysine]: the “Product (reactivity for each amino acid)” value at L-Ile hydroxylase [5] was “None”. In addition, in [6], the “Product (reactivity for various amino acids)” value is recorded as “None”.

Take `CC(C)[C@H](N)C(=O)O` [L-Valine, L-valine]: the “Product (reactivity for each amino acid)” value at L-Ile hydroxylase [5] was “None”. The “Product (reactivity for various amino acids)” value in experiment [6] is given as “None”.

Take `[Zn+2]` [Zn^2+]: the “isoleucine hydroxylation activity in presence of inhibitor” value in experiment [3] is “inhibited”. Moreover, the “Relative activity (%)” value on L-Ile hydroxylase [4] was 0%.

With `O=C(O)CCC(=O)C(=O)O` [α-KG, 2-oxoglutaric acid], the “HIL” value at L-Ile hydroxylase [1] came out at 0.00 mM. Further, the “HIL production” value in [2] was 0.00 mM.

For the molecule NAD(P)H, the “AMKP concentration” value in the experiment with strain 2-e-2 amounted to 1.58 mM.

B1: B. weihenstephanensis KBAB4: crude enzyme solution of E. coli expressing ido gene from B. weihenstephanensis KBAB4, SEQ ID NO: 21 (protein, listed as Bacillus weihenstephanensis)
chain: MLTTVSNKTSSFDVEQKVHEFESNGYIQIFNDIFLQDQEDQALLTKAQLDYYSLQNDAYGECRARAYSRYIKYAGSSDYVLDTDNGYFQSEEYNYDDGGKIRNFNSITDEFLHNSLIEKIVRFDSEFASNTNILDTSKDLVIGLHQVRYKATRENPSFSSPIWLHKDDEPIVFLHLMNLSNTALGGDNLIANSPREINKLISLKDPLETLVFGQKVFHAVTPLGTECNTEALRDILLVTFSYKEPK
Regarding B1, the “Amount of HIL produced from Ile, HIL” value in [8] was 3116 µM.

B2: B. thuringiensis AKU238: crude enzyme solution of E. coli expressing ido gene from B. thuringiensis AKU238, SEQ ID NO: 17 (protein, listed as Bacillus thuringiensis)
chain: MEVFIMTFVLSKMSGFSIEEKVHEFESKGFLEISNEIFLQEEENHRLLTQAQLDYYNLEDDAYGECRARSYSRYIKYVDSPDYILDNSNDYFQSKEYNYDDGGKVRQFNSINDSFLCNPLIQNIVRFDTEFAFKTNIIDTSKDLIIGLHQVRYKATKERPSFSSPIWLHKDDEPVVFLHLMNLSNTAIGGDNLIANSPREINQFISLKEPLETLVFGQKVFHAVTPLGTECSTEAFRDILLVTFSYKETK
Consider B2, for which the “Amount of HIL produced from Ile, HIL” value in experiment [8] amounted to 2016 µM.

B3: B. thuringiensis israelensis ATCC35646: crude enzyme solution with IDO from B. thuringiensis israelensis ATCC 35646, SEQ ID NO: 8 (protein, listed as Bacillus thuringiensis)
chain: KMSGFSIEEKVHEFESKGFLEISNEIFLQEEENHSLLTQAQLDYYNLEDDAYGECRARSYSRYIKYVDSPDYILDNSNDYFQSKEYNYDDGGKVRQFNSINDSFLCNPLIQNIVHFDTEFAFKTNIIDKSKDLIIGLHQVRYKATKERPSFSSPIWLHKDDEPVVFLHLMNLSNTAIGGDNLIANSPREINQFISLKEPLETLVFGQKVFHAVTPLGTECSTEAFRDILLVTFSYKETK
On to B3, for which the “Amount of HIL produced from Ile, HIL” value in [8] was 2150 µM.
